Experimental data as given in US20140213575A1, “6H-Thieno[3,2-f][1,2,4]triazolo[4,3-a][1,4]diazepines” (BAYER INTELLECTUAL PROPERTY GMBH, priority 2011, published 2014).

Legend:
[1] = target: T1, BRD4(1) (Homo sapiens, UniProt O60885); assay: Binding assay BRD4/acetylated peptide H4 (TR-FRET/HTRF protein-protein interaction assay); settings: inhibition of interaction BRD4(1) / acetylated histone H4 peptide, TR-FRET
T1 construct: BRD4(1) (amino acids 44-168); made in house; host or cells: E. coli
Description: Binding Assay BRD4/Acetylated Peptide H4 (“PRQ”)
To assess the BRD4 binding strength of the substances described in this application, their capacity for dose-dependent inhibition of the interaction between BRD4 and acetylated histone H4 was quantified.
For this purpose, a time-resolved fluorescence resonance energy transfer (TR-FRET) assay was used, which measures the binding between N-terminally His6-tagged BRD4(1) (amino acids 44-168) and a synthetic acetylated histone H4 (Ac-H4) peptide with the sequence GRGK(Ac)GGK(Ac)GLGK(Ac)GGAK(Ac)RHGSGSK-biotin. The recombinant BRD4 protein (produced in-house) was expressed in E. coli and was purified by (Ni-NTA) affinity chromatography and (Sephadex G-75) size-exclusion chromatography. The Ac-H4 peptide can be purchased for example from Biosyntan (Berlin, Germany).
In the assay, typically 11 different concentrations of each substance (0.1 nM, 0.33 nM, 1.1 nM, 3.8 nM, 13 nM, 44 nM, 0.15 μM, 0.51 μM, 1.7 μM, 5.9 μM and 20 μM) were measured as duplicates on the same microtitre plate. For this, 100-fold concentrated solutions in DMSO were prepared by serial dilutions (1:3.4) of a 2 mM stock solution in a clear, 384-well microtitre plate (Greiner Bio-One, Frickenhausen, Germany). From this, 50 nl was transferred to a black assay plate (Greiner Bio-One, Frickenhausen, Germany). The assay was started by supplying 2 μl of a 2.5-fold concentrated BRD4 solution (usually 10 to 50 nM final concentration in the 5 μl of the reaction volume) in aqueous assay buffer [50 mM HEPES pH 7.5, 50 mM sodium chloride (NaCl), 0.25 mM CHAPS and 0.05% serum albumin (BSA)] to the substances in the assay plate. This was followed by a 10-minute incubation step at 22° C. for the pre-equilibration of putative complexes between BRD4 and the substances.
The mixture was then incubated in the dark for one hour at 22° C. and then overnight at 4° C. The formation of BRD4/Ac-H4 complexes was determined by measuring the resonance energy transfer from the streptavidin-Eu-cryptate to the anti-6His-XL665 antibody that is present in the reaction. For this, the fluorescence emissions at 620 nm and 665 nm were measured after excitation at 330-350 nm in a TR-FRET measuring instrument, e.g. a Rubystar or Pherastar (both from BMG Lab Technologies, Offenburg, Germany) or a Viewlux (Perkin-Elmer). The ratio of the emissions at 665 nm and at […] was taken as an indicator of the amount of BRD4/Ac-H4 complexes formed.
The data obtained (ratio) were normalized, wherein 0% inhibition corresponded to the mean value from the measured values of a set of controls (usually 32 data points), in which all reagents were contained. 50 nl DMSO (100%) was used instead of test substances. Inhibition of 100% corresponded to the mean value from the measured values of a set of controls (usually 32 data points), in which all reagents except BRD4 were contained. The IC50 value was determined by regression analysis based on a 4-parameter equation (minimum, maximum, IC50, Hill; Y=Max+(Min−Max)/(1+(X/IC50)^Hill)) using Bayer's own analysis software.

[2] = test system: B16F10 cells; assay: Cellular proliferation assay (alamarBlue) B16F10; format: cell-based; settings: Mus musculus, B16-F10, 96 hours, read-out: Melanoma B16F10 IC50
Method: (§1) In accordance with the invention, the ability of the substances to inhibit the proliferation of various cell lines was determined. Cell viability was determined by means of the alamarBlue® reagent (Invitrogen). […] After incubation overnight at 37° C., the fluorescence values were determined (CI values). […] Then the fluorescence values were determined (CO values).
(§2) The substances were investigated in the cell lines in Table 1, which for example represent the stated indications: […]

[3] = test system: VCaP cells; assay: Cellular proliferation assay (alamarBlue) VCaP; format: cell-based; settings: Homo sapiens, 168 hours, read-out: Prostate VCaP IC50
Method: as §1, §2

[4] = test system: LNCaP cells; assay: Cellular proliferation assay (alamarBlue) LNCaP; format: cell-based; settings: Homo sapiens, 168 hours, read-out: Prostate LNCaP IC50
Method: as §1, §2

[5] = test system: MOLM-13 cells; assay: Cellular proliferation assay (alamarBlue) MOLM-13; format: cell-based; settings: Homo sapiens, 96 hours, read-out: Leukaemia MOLM-13 IC50
Method: as §1, §2

[6] = test system: MCF-7 cells; assay: Cellular proliferation assay (alamarBlue) MCF-7; format: cell-based; settings: Homo sapiens, MCF7, 96 hours, read-out: Breast MCF-7 IC50
Method: as §1, §2

[7] = test system: LAPC-4 cells; assay: Cellular proliferation assay (alamarBlue) LAPC-4; format: cell-based; settings: Homo sapiens, LAPC4, 168 hours, read-out: Prostate LAPC-4 IC50
Method: as §1, §2

[8] = test system: MOLP-8 cells; assay: Cellular proliferation assay (alamarBlue) MOLP-8; format: cell-based; settings: Homo sapiens, 120 hours, read-out: Multiple myeloma MOLP-8 IC50
Method: as §1, §2

[9] = test system: HeLa-MaTu cells; assay: Cellular proliferation assay (alamarBlue) HeLa-MaTu; format: cell-based; settings: 96 hours, read-out: Cervix HeLa-MaTu IC50
Method: as §1, §2

[10] = test system: plasma proteins; assay: Plasma protein binding by equilibrium dialysis; format: in vitro ADME, mouse; settings: for fu: free fraction of the species investigated (mouse), as used in Table 6; for fraction unbound: mouse, plasma, free (unbound) fraction, equilibrium dialysis, read-out: Protein binding, given as % fu
Method: The binding of test substances to plasma proteins is determined by equilibrium dialysis by means of the Ht-dialysis apparatus (96-well) made of Teflon and a semipermeable membrane (regenerated cellulose, MWCO 12-14K). This separates 150 μl of each of a plasma side and a buffer side (50 mM phosphate buffer). The test substance is added in 2 concentrations (usually 3 and 0.3 μM) to the plasma side and binds to plasma proteins. The unbound fraction of the test substance passes through the membrane and is distributed on either side until equilibrium is established (after approx. 6-8 h at 37° C.). The substance concentration on the buffer side and the plasma side is determined by LC-MS analysis. For this, both sides are brought by dilution with buffer or plasma to the same matrix (10% plasma) and then precipitated with methanol. The free (unbound) fraction (fu) is calculated from the quotient of the buffer and plasma concentration. Stability tests and recovery tests are run concurrently as controls. In addition, the substance in buffer is dialysed against buffer, to check the nonspecific binding to apparatus and membrane and establishment of equilibrium. Because during incubation the osmotic pressure of the plasma proteins leads to dilution of the plasma (volume shift), this possible error is determined by weighing blank plasma samples and is included in the calculation of fu. Establishment of equilibrium and plasma stability should have a value not lower than 80% and the recovery should be at least 30%. A free fraction of <1% is regarded as high, between 1 and 10% as moderate and >10% as low plasma protein binding.

For `Cc1sc2c(c1C)C(c1ccc(Cl)cc1)=N[C@@H](CC(=O)N1C3CCC1CC(=O)C3)c1nnc(C)n1-2` [Example 1, 8-{2-[(S)-4-(4-Chlorophenyl)-2,3,9-trimethyl-6H-thieno[3,2-f][1,2,4]triazolo[4,3-a][1,4]diazepin-6-yl]acetyl}-8-azabicyclo[3.2.1]octan-3-one], the IC50 [1] was 0.028 µM, the IC50 [2] was 0.097 µM and the IC50 [3] was 0.039 µM. It also gave an IC50 [4] of 0.09 µM, an IC50 [5] of 0.091 µM and an IC50 [6] of 0.146 µM. For the same compound, the IC50 [7] was 0.054 µM, the IC50 [8] was 0.07 µM and the IC50 [9] was 0.251 µM. It also gave a fu [10] of 12% and a fraction unbound [10] of 0.12.
For `Cc1sc2c(c1C)C(c1ccc(Cl)cc1)=N[C@@H](CC(=O)N1CC3(COC3)C1)c1nnc(C)n1-2` [Example 2, 2-[(S)-4-(4-Chlorophenyl)-2,3,9-trimethyl-6H-thieno[3,2-f][1,2,4]triazolo[4,3-a][1,4]diazepin-6-yl]-1-(2-oxa-6-azaspiro[3.3]hept-6-yl)ethan-1-one], the IC50 [1] was 0.027 µM, the IC50 [2] was 0.082 µM and the IC50 [3] was 0.058 µM. For the same compound, the IC50 [4] was 0.08 µM, the IC50 [5] was 0.098 µM and the IC50 [6] was 0.116 µM. It also gave an IC50 [7] of 0.043 µM, an IC50 [8] of 0.064 µM and an IC50 [9] of 0.202 µM. It also gave a fu [10] of 25% and a fraction unbound [10] of 0.25.
